{"source": "ChEMBL document CHEMBL4819053", "about": "“Alkyne-Bridged α-Conotoxin Vc1.1 Potently Reverses Mechanical Allodynia in Neuropathic Pain Models” (J Med Chem, 2021)", "test_system": "Rattus norvegicus", "experiment": "Antiallodynic activity in Sprague-Dawley rat model of neuropathic mechanical allodynia assessed as increase in paw withdrawal threshold at 100 mg/kg, po measured at 2 to 6 hrs post last dose by von Frey test", "type": "functional, organism-based", "details": "time 2-6 hrs", "note": "Calls of active or inactive are those of the source.", "data": [{"smiles": "NCC1(CC(=O)O)CCCCC1", "values": [{"measurement": "Activity", "value": "Active"}]}]}
